This is an account of results in US8252588B2, “Stem cells having increased sensitivity to SDF-1 and methods of generating and using same” (Yeda Research and Development Co. Ltd., priority 2003, dated 2012).

One assay relates to MMP-2/9. The assay is described as follows: Zymography assay of MMP-2/9 activity in liver of CCl4 injected mice. Type of assay: in vivo. The following applies: CCl4 treated NOD/SCID mice.
In assay [1] the test system is CXCR4. The assay is described as follows: Human CXCR4 staining of peripheral blood MNC of chimeric mice, flow cytometry. Type of assay: in vivo. The settings on record: CCl4 treated chimeric mice. As for the experimental part:
(§1) Liver injury—Mice were injected intraperitoneally (IP) with 10, 15 or 30 μl/mouse of CCl4 and liver samples were collected within a few hours, or 1-2 days following injection, as indicated. In homing assays, mice were intraveneously (IV) transplanted with human MPB CD34^+ cells (0.6×10^6 cells/mouse) 4 hours prior to liver collection. Homing was blocked by preincubation of transplanted cells with 10 μg of anti CXCR4/mouse or by IP injection of 100 μg/mouse of a specific MMP2/9 inhibitor III (CalBiochem, catalogue #444251). Human progenitors in the blood circulation of engrafted mice transplanted a month before with human CB MNC (20×10^6 cells/mouse) were quantified by seeding 2×10^5 mononuclear cells/ml in colony forming unit assay as described [Kollet (2001) Blood 97:3283-3291]. CXCR4 expression was determined by flow cytometry.

Assay [2] relates to human CD34+ cells. The assay is described as follows: Four hour homing of human CD34+ cells to the CCl4-injured liver of NOD/SCID mice. The assay is classed as in vivo. The following applies: non-irradiated NOD/SCID mice, 15 μl CCl4 24 hours prior, four hour assay. As for the experimental part:
as §1

Assay [3] has as its system human colony forming progenitors. The assay is described as follows: Human progenitors in blood circulation of engrafted mice, colony forming unit assay. The settings on record: engrafted NOD/SCID mice, one day after single injection of 10 μl CCl4. Type of assay: in vivo. The procedure: Data summarize three independent experiments.
as §1

Assay [4] has as its system human CD34+ cells. The assay is described as follows: Four hour homing of CD34+ cells to the liver of non-irradiated mice, local hepatic injection of human SDF-1. Type of assay: in vivo. The following applies: non-irradiated NOD/SCID, human SDF-1 injected into hepatic parenchyma, IV infusion of cells. The procedure:
FIG. 1a is a histogram showing inhibition of homing of human CB or MPB enriched CD34^+ cells to the murine BM, spleen and liver by neutralizing CXCR4 antibodies. Data presents inhibition as percentage of control. P≦0.008, comparing anti CXCR4 treated samples to control counterparts. […] Human SDF-1 was injected to the liver parenchyma as indicated. Cells were collected from the injected lobe to determine the homing of human CD34^+ cells.
Mice—NOD/SCID mice were bred and housed as previously described [Kollet (2001) Blood 97:3283-3291]. All experiments were approved by the animal care committee of the Weizmann Institute. Mice were sublethally irradiated (i.e., 375 cGy) as indicated, 24 hours prior to transplantation. Non-irradiated mice were used when local hepatic injection of SDF-1 was effected.
CXCR4 neutralization—Human CD34^+ cells were pre-incubated with anti human CXCR4 neutralizing mAb (10 μg/0.5×10^6 cells, 12G5, R&D) and were injected (0.5-0.6×10^6 CD34^+ cells per mouse) into the tail vein without washing. Mice were killed 4 hours, 16 hours, or 5-6 weeks following cell transplantation as indicated. Single cell suspensions of liver tissues were washed thoroughly with PBS. Homing of human cells was determined as described [Kollet (2001) Blood 97:3283-3291], acquiring 1.5×10^6 cells/sample.

Assay [5] deals with CXCR4. The assay is described as follows: Surface CXCR4 expression on CD34+ cells by FACS. Type of assay: cell-based, human. The following applies: CB CD34+ cells, 5 hours incubation. The procedure:
CB CD34^+ cells were incubated for 5 hours with RPMI growth medium and HT1080 conditioned medium. Cells were stained with isotype control antibody as a negative control (Isot), or with CXCR4 antibody. Representative data of 3 experiments is shown.
Human cells—Cord blood (CB) cells and adult mobilized peripheral blood (MPB) cells were obtained after informed consent in accordance with procedures approved by the human ethics committee of the Weizmann Institute. CD34^+ cell enrichment was effected using magnetic bead separation as previously described [Kollet (2001) Blood 97:3283-3291]. CXCR4 expression was determined by flow cytometry using purified anti human CXCR4 (clone 12G5, R&D, Minneapolis, Minn.) and secondary F(ab′)2 fragment of goat anti mouse IgG FITC (Jackson, West Grove, Pa.).

Consider `ClC(Cl)(Cl)Cl` [CCl4, Carbon tetrachloride], for which, in the assay on MMP-2/9, the “MMP-9 expression in the liver” value is on record as “emergence of MMP-9 expression” and the “activity of MMP-2 in the liver” value is listed as “increased activity”. Further, the “CXCR4 expression on human MNC cells in the circulation” value in the assay on CXCR4 [1] is given as “increased level of CXCR4 expression”. In addition, the “homing of human CD34+ cells to the injured liver” value with human CD34+ cells [2] is “rapidly induced homing”. The “recruitment of human colony forming progenitors from bone marrow to the circulation” value in assay [3] is “induced the recruitment”.

For the molecule “SDF-1: chemokine stromal derived factor, ligand of CXCR4”, the “homing of CD34+ progenitors to the liver” value in the assay with human CD34+ cells [4] is “increased the homing”.

B1: purified MMP-2: purified recombinant MMP-2 (protein, UniProt P08253 110-660, looked up)
72 kDa type IV collagenase: YNFFPRKPKWDKNQITYRIIGYTPDLDPETVDDAFARAFQVWSDVTPLRFSRIHDGEADIMINFGRWEHGDGYPFDGKDGLLAHAFAPGTGVGGDSHFDDDELWTLGEGQVVRVKYGNADGEYCKFPFLFNGKEYNSCTDTGRSDGFLWCSTTYNFEKDGKYGFCPHEALFTMGGNAEGQPCKFPFRFQGTSYDSCTTEGRTDGYRWCGTTEDYDRDKKYGFCPETAMSTVGGNSEGAPCVFPFTFLGNKYESCTSAGRSDGKMWCATTANYDDDRKWGFCPDQGYSLFLVAAHEFGHAMGLEHSQDPGALMAPIYTYTKNFRLSQDDIKGIQELYGASPDIDLGTGPTPTLGPVTPEICKQDIVFDGIAQIRGEIFFFKDRFIWRTVTPRDKPMGPLLVATFWPELPEKIDAVYEAPQEEKAVFFAGNEYWIYSASTLERGYPKPLTSLGLPPDVQRVDAAFNWSKNKKTYIFAGDKFWRYNEVKKKMDPGFPKLIADAWNAIPDNLDAVVDLQGGGHSYFFKGAYYLKLENQSLKSVKFGSIKSDWLGC
Regarding B1, in the assay on CXCR4 [5], the “surface CXCR4 expression on enriched human CD34+ cells” value is “upregulation of CXCR4”.
